# Measured values as given in patent US10732169B2, “Personalized healthcare P4 drug monitoring system and method” (eNano Health Limited, priority 2016, dated 2020).
# Legend:
# [1] = Keppra levels in dried spot saliva samples over time after taking the drug, LC/MS; format: in vivo; conditions: two separate days, FIG. 14
# Procedure: FIGS. 9 to 14 further illustrate the detection of Keppra in saliva. Levetiracetam (Trade Name: Keppra), is a medication used to treat epilepsy. In the illustrative example, the saliva specimens are collected on 2 separate days. On each day, subject is asked to collect blood/saliva samples before taking Keppra (time=0 hour), and after taking the drug (time=1, 2, 4, 8 hours). Saliva samples are collected in both liquid and dried spot forms. Blood samples are collected in dried spot form and are stored at room temperature before transportation for analytical laboratory analysis using LC/MS.
# FIG. 13 is a graphical representation of Keppra levels using dried saliva comparatively measured. Graphical representation 1301 illustrates the comparison of dried saliva spot samples over two separate days.
# FIG. 14 is a graphical representation of Keppra levels using dried saliva comparatively measured. The half-life of Keppra is known to be 5-8 hours. […] Consequently, dried spot saliva samples reliably reflect clearance of Keppra from the body according to the claimed invention.
# [2] = known value; cited from earlier work
# [3] = LC/MS, all subjects, FIG. 15
# Procedure: In a third illustrative example, the detection of a HIV drug in saliva is conducted according to the claimed invention. […] Sample analysis hardware includes chromatography and mass spectrometry functionality and can additionally include genetic sequencing functionality.
Compound,time after which Keppra level depleted by half [1],half-life [2],detection of drug fragment ion in saliva [3]
"CC[C@@H](C(N)=O)N1CCCC1=O [Keppra, Levetiracetam]",8 h,5 to 8 h,
Nc1nc(=O)n([C@@H]2CS[C@H](CO)O2)cc1F [FTC],,,detection of the FTC fragment ion
